Residues, ends and D or L forms follow the SMILES beside them. *: point of attachment. Cbz = O=C(OCc1ccccc1)*; CH2Cl = ClC*
How the values were obtained:
[1] = Inhibition of Plasmodium falciparum Falcipain 2
L6 = test: Cytotoxicity against rat L6 cells; assay type: cell-based
[2] = tested on: Trypanosoma brucei rhodesiense; test: Antitrypanosomal activity against Trypanosoma brucei rhodesiense; assay type: functional, organism-based
Plasmodium falciparum = test: Antiprotozoal activity against Plasmodium falciparum; assay type: functional, organism-based
[3] = Inhibition of Trypanosoma brucei recombinant rhodesain
Trypanosoma brucei [4] = test: Antitrypanosomal activity against Trypanosoma brucei; assay type: functional, organism-based
[5] = Inhibition of Trypanosoma brucei rhodesain
[6] = tested on: Trypanosoma brucei brucei; test: Antitrypanosomal activity against Trypanosoma brucei brucei; assay type: functional, organism-based
[7] = tested on: Trypanosoma brucei brucei; test: Antitrypanosomal activity against blood stream form of Trypanosoma brucei brucei; assay type: functional, organism-based
[8] = tested on: Trypanosoma brucei brucei; test: Antitrypanosomal activity against procyclic form of Trypanosoma brucei brucei; assay type: functional; details: read-out: ED50 (the source's name)
Trypanosoma brucei [9] = test: Inhibition of Trypanosoma brucei rhodesain assessed as second order rate constant
Rhodesain = Rhodesain (Trypanosoma brucei rhodesiense, UniProt Q95PM0); test: Inhibition of Trypanosoma brucei rhodesiense rhodesain
Cruzipain = Cruzipain (Trypanosoma cruzi, UniProt P25779); test: Inhibition of Trypanosoma cruzi cruzain
Papain = target: T1, Papain (Carica papaya, UniProt P00784); test: Inhibition of papaya papain
T1 sequence (P00784 whole entry): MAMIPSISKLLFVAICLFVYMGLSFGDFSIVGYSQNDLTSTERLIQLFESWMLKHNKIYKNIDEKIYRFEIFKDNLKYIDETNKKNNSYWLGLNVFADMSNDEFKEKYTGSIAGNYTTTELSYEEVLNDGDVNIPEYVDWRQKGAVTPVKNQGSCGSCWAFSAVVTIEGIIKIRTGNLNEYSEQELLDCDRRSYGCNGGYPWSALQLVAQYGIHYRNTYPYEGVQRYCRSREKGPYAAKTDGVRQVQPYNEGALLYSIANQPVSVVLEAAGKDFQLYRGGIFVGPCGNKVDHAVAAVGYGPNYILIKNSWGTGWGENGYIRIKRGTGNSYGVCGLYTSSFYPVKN

[10] = Inhibition of cathepsin B (unknown origin); set-up: species or system Homo sapiens
Trypsin = Trypsin (Homo sapiens, UniProt P07477+P07478+P35030); test: Inhibition of trypsin (unknown origin); assay type: protein assay

Chain of Rhodesain (Q95PM0 whole entry): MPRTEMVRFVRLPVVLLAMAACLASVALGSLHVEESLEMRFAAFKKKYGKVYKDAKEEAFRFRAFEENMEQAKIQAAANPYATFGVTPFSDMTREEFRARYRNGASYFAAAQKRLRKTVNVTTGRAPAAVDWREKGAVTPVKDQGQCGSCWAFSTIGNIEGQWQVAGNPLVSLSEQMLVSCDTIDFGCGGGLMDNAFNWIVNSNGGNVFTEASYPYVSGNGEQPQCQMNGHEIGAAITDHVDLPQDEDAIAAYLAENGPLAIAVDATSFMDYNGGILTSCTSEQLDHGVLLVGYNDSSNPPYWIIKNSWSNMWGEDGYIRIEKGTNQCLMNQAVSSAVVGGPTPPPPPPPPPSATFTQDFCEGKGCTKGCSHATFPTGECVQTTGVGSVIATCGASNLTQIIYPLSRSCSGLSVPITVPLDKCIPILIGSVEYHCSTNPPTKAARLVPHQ
Chain of Cruzipain (P25779 whole entry): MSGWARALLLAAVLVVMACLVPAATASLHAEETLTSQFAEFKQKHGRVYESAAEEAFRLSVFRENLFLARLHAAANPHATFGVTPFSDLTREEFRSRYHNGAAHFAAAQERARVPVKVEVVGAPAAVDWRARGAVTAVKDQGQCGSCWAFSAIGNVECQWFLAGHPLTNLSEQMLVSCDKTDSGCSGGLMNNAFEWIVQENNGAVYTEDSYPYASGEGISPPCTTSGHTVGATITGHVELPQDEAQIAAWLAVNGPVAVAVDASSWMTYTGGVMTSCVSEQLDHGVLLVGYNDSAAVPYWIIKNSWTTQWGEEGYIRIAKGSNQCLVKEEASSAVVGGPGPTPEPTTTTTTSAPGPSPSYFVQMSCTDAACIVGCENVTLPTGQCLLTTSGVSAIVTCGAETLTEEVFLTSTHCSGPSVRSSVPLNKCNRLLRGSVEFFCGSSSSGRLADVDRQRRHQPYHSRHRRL

Compound: COCCNc1nc(C#N)nc(N(Cc2cccc(C(F)(F)F)c2)C2C3CC4CC(C3)CC2C4)n1 (stereo not given)
- Ki [1]: 9.8 µM
- IC50 (L6): 8.1 µM
- IC50 [2]: 19.6 µM
- IC50 (Plasmodium falciparum): 1.8 µM

Compound: CC(C)[C@H](NC(=O)c1ccc2c(c1)OCCO2)C(=O)N(C)N(C#N)Cc1ccccc1
- IC50 [3]: 0.0158 µM

Compound: C/C(=N\N=C(/S)N1CCCCC1)c1cccc(Br)c1
- IC50 (Trypanosoma brucei [4]): 3 µM
- IC50 [5]: 4 µM

Compound: CN(C(=O)[C@H](Cc1ccccc1)NC(=O)c1ccc2c(c1)OCCO2)N(C#N)Cc1ccccc1
- IC50 [3]: 0.00051 µM

Compound: N=C(NC(=O)OCc1ccccc1)NC(=O)c1ccc(C(=O)NCc2ccccc2)[nH]1
- Ki [1]: 7.81 µM
- Ki [5]: 0.05 µM
- IC50 [6]: 9.17 µM

Compound: CN(C(=O)[C@H](Cc1ccccc1)NC(=O)OCc1ccccc1)N(C#N)CCCc1ccccc1
- IC50 [3]: 0.002 µM
- EC50 ([7]; read-out: ED50 (the source's name)): 1.2 µM
- EC50 [8]: 0.7 µM

Compound: CN(C(=O)[C@H](Cc1ccccc1)NC(=O)c1ccc2c(c1)OCCO2)N(C#N)CCCc1ccccc1
- IC50 [3]: 0.00024 µM

Compound: N/C(S)=N/N=C(\C=C\c1ccccc1)c1ccc(Cl)c(Cl)c1
- IC50 [2]: 0.072 µM

Compound: CC(C)(C)OC(=O)NCc1cccc(NC(=O)c2ccc(C(=O)NC(=N)NC(=O)OCc3ccccc3)[nH]2)c1
- Ki [1]: 0.62 µM
- Ki [5]: 0.11 µM
- IC50 [6]: 0.22 µM

Compound: CC(C)C[C@H](NC(=O)N1CCOCC1)C(=O)N[C@H](/C=C/S(=O)(=O)c1ccccc1)CCc1ccccc1
- K (Trypanosoma brucei [9]): 15.8 ×10⁶ /M/min

Compound: NC(=S)/N=N/c1c(O)[nH]c2ccccc12
- IC50 [5]: 3.5 µM

Compound: C/C(=N\N=C(/S)N1CCN(C)CC1)c1cccc(Br)c1
- IC50 (Trypanosoma brucei [4]): 2 µM
- IC50 [5]: 4 µM

Compound: CCN(CC)/C(S)=N/N=C(\C)c1cccc(Br)c1
- IC50 (Trypanosoma brucei [4]): 3 µM
- IC50 [5]: 1.8 µM

Compound: O=C(N[C@@H](Cc1ccccc1)C(=O)N[C@@H](Cc1ccccc1)C(=O)CCl)OCc1ccccc1 (Cbz-Phe-Phe-CH2Cl)
- IC50 [7]: 3.6 µM

Compound: CC(C)[C@H](NC(=O)c1ccc2c(c1)OCCO2)C(=O)N(C)N(C#N)CCc1ccccc1
- IC50 [3]: 0.0351 µM

Compound: CCCCCN(C#N)N(C)C(=O)[C@H](CC(C)C)NC(=O)c1ccc2c(c1)OCCO2
- IC50 [3]: 0.00033 µM

Compound: CCCCCN(C#N)N(C)C(=O)[C@H](Cc1ccccc1)NC(=O)c1ccc2c(c1)OCCO2
- IC50 [3]: 0.00134 µM

Compound: CCCC1CCC(N(Cc2ccc3c(c2)OCO3)c2nc(C#N)nc(N3CCOCC3)n2)CC1 (stereo not given)
- Ki [1]: 1.03 µM
- IC50 (L6): 5.9 µM
- IC50 [2]: 31.2 µM
- IC50 (Plasmodium falciparum): 2.4 µM
- Ki (Rhodesain): 0.002 µM

Compound: O=C(NC(=S)Nc1ncccc1OCc1ccccc1)c1cccn1S(=O)(=O)c1ccccc1
- IC50 (Cruzipain): 3 µM
- IC50 [5]: 3.5 µM

Compound: CCCC/C(=N\NC(N)=S)c1ccc(Cl)c(Cl)c1
- IC50 [2]: 0.13 µM

Compound: CC(C)C[C@H](NC(=O)c1ccc2c(c1)OCCO2)C(=O)N(C)N(C#N)CCCc1ccccc1
- IC50 [3]: 0.00014 µM

Compound: N=C(NC(=O)OCc1ccccc1)NC(=O)c1ccc(C(=O)NCc2cccc(NC(=O)OCc3ccccc3)c2)o1
- Ki [1]: 1.15 µM
- Ki [5]: 0.05 µM
- IC50 [6]: 8.31 µM

Compound: N=C(NC(=O)OCc1ccccc1)NC(=O)c1ccc(C(=O)NCc2cccc(NC(=O)OCc3ccccc3)c2)[nH]1
- Ki [1]: 1.62 µM
- Ki [5]: 0.1 µM
- IC50 [6]: 2.32 µM

Compound: CCN(c1nc(C#N)nc(N2CCOCC2)n1)C1CCCCC1
- Ki [1]: 0.08 µM
- IC50 (L6): 45.5 µM
- IC50 [2]: 44.1 µM
- IC50 (Plasmodium falciparum): > 5 µM
- Ki (Rhodesain): 0.1 µM

Compound: CCCCCN(C#N)N(C)C(=O)[C@@H](NC(=O)c1ccc2c(c1)OCCO2)C(C)C
- IC50 [3]: 0.0546 µM

Compound: O=C1C(=O)N(S(=O)(=O)c2ccccc2)c2ccccc21
- IC50 [5]: 15 µM

Compound: O=C(N[C@@H](Cc1ccccc1)C(=O)N[C@H](/C=C/S(=O)(=O)Nc1ccccc1)CCc1ccccc1)OCc1ccccc1
- K (Trypanosoma brucei [9]): 2.24 ×10⁶ /M/min

Compound: N=C(NC(=O)OCc1ccccc1)NC(=O)c1ccc(C(=O)NCc2ccc(NC(=O)OCc3ccccc3)cc2)[nH]1
- Ki [1]: 0.87 µM
- Ki [5]: 0.028 µM
- IC50 [6]: > 100 µM

Compound: CS(=O)(=O)c1sc(C(=O)NC(=S)Nc2ccc(OC(F)(F)F)cc2)c2ccccc12
- IC50 (Papain): > 50 µM
- IC50 [10]: 11 µM
- IC50 (Cruzipain): 6.9 µM
- IC50 (Trypsin): > 50 µM
- IC50 [5]: 4.2 µM

Compound: C[C@H](NC(=O)[C@H](Cc1ccccc1)NC(=O)OCc1ccccc1)C(=O)C=[N+]=[N-]
- IC50 [7]: 6.1 µM

Compound: Cn1nc(C(F)(F)F)cc1-c1ccc(NC(=O)Nc2cccc(C(F)(F)F)c2)s1
- IC50 (Papain): > 50 µM
- IC50 [10]: 11 µM
- IC50 (Cruzipain): 3.1 µM
- IC50 (Trypsin): > 50 µM
- IC50 [5]: 3 µM

Compound: N=C(NC(=O)OCc1ccccc1)NC(=O)c1ccc(C(=O)NCc2ccccc2)o1
- Ki [1]: 2.69 µM
- Ki [5]: 2.08 µM

Compound: C[C@H](NC(=O)[C@H](Cc1ccccc1)NC(=O)OCc1ccccc1)C(=O)CF
- IC50 [7]: 31 µM

Compound: N#Cc1nc(N2CCOCC2)nc(N(Cc2ccc3c(c2)OCO3)C2CCCCC2)n1
- Ki [1]: 0.02 µM
- IC50 (L6): 11.1 µM
- IC50 [2]: 30.1 µM
- IC50 (Plasmodium falciparum): 2.9 µM
- Ki (Rhodesain): 0.008 µM

Compound: CN(C#N)N(C)C(=O)[C@H](Cc1ccccc1)NC(=O)c1ccc2c(c1)OCCO2
- IC50 [3]: 0.00014 µM

— ChEMBL document CHEMBL2401704, “Inhibition of rhodesain as a novel therapeutic modality for human African trypanosomiasis” (J Med Chem, 2013)
